Legend:
Palbociclib = compound: CC(=O)c1c(C)c2cnc(Nc3ccc(N4CCNCC4)cn3)nc2n(C2CCCC2)c1=O [Palbociclib]; details: max 10 µM
Method in brief: (§1)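 After 24 hours at 37°C and 5% CO2 in 1536-well plates holding 7.5 μl of DMEM/F12 or RPMI with 10% FBS, cancer cell lines were dosed for 72 hours, with final DMSO typically 0.2%. Viability came from CellTiter-Glo 2.0 luminescence, scaled between the means of blank wells and DMSO wells. A non-linear mixed effects model fitted a two-parameter logistic curve to each dose response to give the single-agent IC50.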

Taselisib = compound: Cc1nc(-c2cn3c(n2)-c2ccc(-c4cnn(C(C)(C)C(N)=O)c4)cc2OCC3)n(C(C)C)n1 [Taselisib]; details: max 10 µM
Method in brief: as §1

Prexasertib = compound: COc1cccc(OCCCN)c1-c1cc(Nc2cnc(C#N)cn2)n[nH]1 [Prexasertib]; details: max 1 µM
Method in brief: as §1

AZD1390 = compound: CC(C)n1c(=O)n(C)c2cnc3cc(F)c(-c4ccc(OCCCN5CCCCC5)nc4)cc3c21 [AZD1390]; details: max 0.3 µM
Method in brief: as §1

Crizotinib = compound: C[C@@H](Oc1cc(-c2cnn(C3CCNCC3)c2)cnc1N)c1c(Cl)ccc(F)c1Cl [Crizotinib]; details: max 10 µM
Method in brief: as §1

Paclitaxel = compound: CC(=O)O[C@H]1C(=O)[C@@]2(C)[C@H]([C@H](OC(=O)c3ccccc3)[C@]3(O)C[C@H](OC(=O)[C@H](O)[C@@H](NC(=O)c4ccccc4)c4ccccc4)C(C)=C1C3(C)C)[C@]1(OC(C)=O)CO[C@@H]1C[C@@H]2O [Paclitaxel]; details: max 3 µM
Method in brief: as §1

Alisertib = compound: COc1cc(Nc2ncc3c(n2)-c2ccc(Cl)cc2C(c2c(F)cccc2OC)=NC3)ccc1C(=O)O [Alisertib]; details: max 10 µM
Method in brief: as §1

Doxorubicin = compound: COc1cccc2c1C(=O)c1c(O)c3c(c(O)c1C2=O)C[C@@](O)(C(=O)CO)C[C@@H]3O[C@H]1C[C@H](N)[C@H](O)[C@H](C)O1 [Doxorubicin]; details: max 1 µM
Method in brief: as §1

Carboplatin = compound: C1CC(C1)(C(=O)[O-])C(=O)[O-].N.N.[Pt+2] [Carboplatin]; details: max 10 µM
Method in brief: as §1

Venetoclax = compound: CC1(C)CCC(CN2CCN(c3ccc(C(=O)NS(=O)(=O)c4ccc(NCC5CCOCC5)c([N+](=O)[O-])c4)c(Oc4cnc5[nH]ccc5c4)c3)CC2)=C(c2ccc(Cl)cc2)C1 [Venetoclax]; details: max 1 µM
Method in brief: as §1

Gemcitabine = compound: Nc1ccn([C@@H]2O[C@H](CO)[C@@H](O)C2(F)F)c(=O)n1 [Gemcitabine]; details: max 0.3 µM
Method in brief: as §1

SN-38 = compound: CCc1c2c(nc3ccc(O)cc13)-c1cc3c(c(=O)n1C2)COC(=O)[C@]3(O)CC [SN-38]; details: max 0.3 µM
Method in brief: as §1

SG3199 = compound: CC1=CN2[C@@H](C1)C=NC3=CC(=C(C=C3C2=O)OC)OCCCCCOC4=C(C=C5C(=C4)N=C[C@@H]6CC(=CN6C5=O)C)OC [SG3199]; details: max 0.001 µM
Method in brief: as §1

Gefitinib = compound: COc1cc2ncnc(Nc3ccc(F)c(Cl)c3)c2cc1OCCCN1CCOCC1 [Gefitinib]; details: max 10 µM
Method in brief: as §1

AZD6738 = compound: C[C@@H]1COCCN1C2=NC(=NC(=C2)C3(CC3)[S@](=N)(=O)C)C4=C5C=CNC5=NC=C4 [AZD6738]; details: max 10 µM
Method in brief: as §1

5-Fluorouracil = compound: O=c1[nH]cc(F)c(=O)[nH]1 [5-Fluorouracil]; details: max 20 µM
Method in brief: as §1

AZD5363 = compound: C1CN(CCC1(C(=O)N[C@@H](CCO)C2=CC=C(C=C2)Cl)N)C3=NC=NC4=C3C=CN4 [AZD5363]; details: max 10 µM
Method in brief: as §1

AZD2811 = compound: CCN(CCO)CCCOc1ccc2c(Nc3cc(CC(=O)Nc4cccc(F)c4)[nH]n3)ncnc2c1 [AZD2811]; details: max 1 µM
Method in brief: as §1

AZD1775 = compound: C=CCn1c(=O)c2cnc(Nc3ccc(N4CCN(C)CC4)cc3)nc2n1-c1cccc(C(C)(C)O)n1 [AZD1775]; details: max 3 µM
Method in brief: as §1

[1] = compound: O=C(Nc1ccc2[nH]nc(-c3ccncc3)c2c1)[C@@H]1CCN(CC(=O)N2CCN(c3ccc(-c4ncccn4)cc3)CC2)C1; details: max 5 µM
Method in brief: as §1

AZD4320 = compound: CN(CC[C@H](CSC1=CC=CC=C1)NC2=C(C=C(C=C2)S(=O)(=O)NC(=O)C3=CC=C(C=C3)N4CCC(CC4)[C@H](C5=CC=CC=C5C6=CC=C(C=C6)Cl)O)S(=O)(=O)C(F)(F)F)CCO [AZD4320]; details: max 1 µM
Method in brief: as §1

AZD5991 = compound: Cc1c2c(nn1C)CSCc1cc(n(C)n1)CSc1cc(c3ccccc3c1)OCCCc1c(C(=O)O)n(C)c3c-2c(Cl)ccc13 [AZD5991]; details: max 1 µM
Method in brief: as §1

SRA737 = compound: N#Cc1cnc(Nc2cc(NC[C@H]3CNCCO3)c(C(F)(F)F)cn2)cn1 [SRA737]; details: max 10 µM
Method in brief: as §1

AZD0156 = compound: CN(C)CCCOc1ccc(-c2ccc3ncc4c(c3c2)n(C2CCOCC2)c(=O)n4C)cn1 [AZD0156]; details: max 3 µM
Method in brief: as §1

Lapatinib = compound: CS(=O)(=O)CCNCc1ccc(-c2ccc3ncnc(Nc4ccc(OCc5cccc(F)c5)c(Cl)c4)c3c2)o1 [Lapatinib]; details: max 10 µM
Method in brief: as §1

Etoposide = compound: COc1cc([C@@H]2c3cc4c(cc3[C@@H](O[C@@H]3O[C@@H]5CO[C@@H](C)O[C@H]5[C@H](O)[C@H]3O)[C@H]3COC(=O)[C@H]23)OCO4)cc(OC)c1O [Etoposide]; details: max 10 µM
Method in brief: as §1

Selumetinib = compound: Cn1cnc2c(F)c(Nc3ccc(Br)cc3Cl)c(C(=O)NOCCO)cc21 [Selumetinib]; details: max 10 µM
Method in brief: as §1

Trametinib = compound: CC(=O)Nc1cccc(-n2c(=O)n(C3CC3)c(=O)c3c(Nc4ccc(I)cc4F)n(C)c(=O)c(C)c32)c1 [Trametinib]; details: max 1 µM
Method in brief: as §1

MK-2206 = compound: NC1(c2ccc(-c3nc4ccn5c(=O)[nH]nc5c4cc3-c3ccccc3)cc2)CCC1 [MK-2206]; details: max 10 µM
Method in brief: as §1

AZD8186 = compound: C[C@@H](Nc1cc(F)cc(F)c1)c1cc(C(=O)N(C)C)cc2c(=O)cc(N3CCOCC3)oc12 [AZD8186]; details: max 10 µM
Method in brief: as §1

Savolitinib = compound: C[C@@H](c1ccc2nccn2c1)n1nnc2ncc(-c3cnn(C)c3)nc21 [Savolitinib]; details: max 1 µM
Method in brief: as §1

AZD5153 = compound: COc1nnc2ccc(N3CCC(c4ccc(OCCN5CCN(C)C(=O)[C@H]5C)cc4)CC3)nn12 [AZD5153]; details: max 1 µM
Method in brief: as §1

Olaparib = compound: O=C(c1cc(Cc2n[nH]c(=O)c3ccccc23)ccc1F)N1CCN(C(=O)C2CC2)CC1 [Olaparib]; details: max 10 µM
Method in brief: as §1

Dasatinib = compound: CC1=C(C(=CC=C1)Cl)NC(=O)C2=CN=C(S2)NC3=CC(=NC(=N3)C)N4CCN(CC4)CCO [Dasatinib]; details: max 2 µM
Method in brief: as §1

AZD7648 = compound: Cc1cc2ncnn2cc1Nc1ncc2c(n1)n(C1CCOCC1)c(=O)n2C [AZD7648]; details: max 10 µM
Method in brief: as §1

| Cell Line | IC50, cell viability 72 h (Palbociclib) | IC50, cell viability 72 h (Taselisib) | IC50, cell viability 72 h (Prexasertib) | IC50, cell viability 72 h (AZD1390) | IC50, cell viability 72 h (Crizotinib) | IC50, cell viability 72 h (Paclitaxel) | IC50, cell viability 72 h (Alisertib) | IC50, cell viability 72 h (Doxorubicin) | IC50, cell viability 72 h (Carboplatin) | IC50, cell viability 72 h (Venetoclax) | IC50, cell viability 72 h (Gemcitabine) | IC50, cell viability 72 h (SN-38) | IC50, cell viability 72 h (SG3199) | IC50, cell viability 72 h (Gefitinib) | IC50, cell viability 72 h (AZD6738) | IC50, cell viability 72 h (5-Fluorouracil) | IC50, cell viability 72 h (AZD5363) | IC50, cell viability 72 h (AZD2811) | IC50, cell viability 72 h (AZD1775) | IC50, cell viability 72 h [1] | IC50, cell viability 72 h (AZD4320) | IC50, cell viability 72 h (AZD5991) | IC50, cell viability 72 h (SRA737) | IC50, cell viability 72 h (AZD0156) | IC50, cell viability 72 h (Lapatinib) | IC50, cell viability 72 h (Etoposide) | IC50, cell viability 72 h (Selumetinib) | IC50, cell viability 72 h (Trametinib) | IC50, cell viability 72 h (MK-2206) | IC50, cell viability 72 h (AZD8186) | IC50, cell viability 72 h (Savolitinib) | IC50, cell viability 72 h (AZD5153) | IC50, cell viability 72 h (Olaparib) | IC50, cell viability 72 h (Dasatinib) | IC50, cell viability 72 h (AZD7648) |
| --- | --- | --- | --- | --- | --- | --- | --- | --- | --- | --- | --- | --- | --- | --- | --- | --- | --- | --- | --- | --- | --- | --- | --- | --- | --- | --- | --- | --- | --- | --- | --- | --- | --- | --- | --- |
| HOS (Osteosarcoma) | > 10000 nM | > 10000 nM | 53.6 nM | > 300 nM | > 10000 nM | 97.2 nM | > 10000 nM | 792 nM | > 10000 nM | > 1000 nM | > 300 nM | 29.4 nM | > 1 nM | > 10000 nM | 8430 nM | > 20000 nM | > 10000 nM | > 1000 nM | 1030 nM | > 5000 nM | > 1000 nM | > 1000 nM | > 10000 nM | > 3000 nM | > 10000 nM | 4340 nM | > 10000 nM | > 1000 nM | > 10000 nM | > 10000 nM | > 1000 nM | 996 nM | > 10000 nM | > 2000 nM | > 10000 nM |
| HT-1376 (Bladder Carcinoma) | > 10000 nM | > 10000 nM | > 1000 nM | > 300 nM | > 10000 nM | > 3000 nM | > 10000 nM | > 1000 nM | > 10000 nM | > 1000 nM | > 300 nM | > 300 nM | > 1 nM | > 10000 nM | > 10000 nM | > 20000 nM | > 10000 nM | > 1000 nM | > 3000 nM | > 5000 nM | > 1000 nM | > 1000 nM | > 10000 nM | > 3000 nM | > 10000 nM | > 10000 nM | > 10000 nM | > 1000 nM | > 10000 nM | > 10000 nM | > 1000 nM | > 1000 nM | > 10000 nM | > 2000 nM | > 10000 nM |
| Hs-578-T (Breast Carcinoma) | > 10000 nM | 2190 nM | 12.3 nM | > 300 nM | > 10000 nM | < 3 nM | 3970 nM | 300 nM | > 10000 nM | > 1000 nM | > 300 nM | > 300 nM | > 1 nM | > 10000 nM | 1810 nM | > 20000 nM | 2370 nM | 435 nM | 394 nM | > 5000 nM | > 1000 nM | > 1000 nM | > 10000 nM | > 3000 nM | > 10000 nM | > 10000 nM | > 10000 nM | > 1000 nM | 5650 nM | 1710 nM | > 1000 nM | 156 nM | > 10000 nM | 66.8 nM | > 10000 nM |
| KELLY (Neuroblastoma) | > 10000 nM | > 10000 nM | 1.18 nM | > 300 nM | 1980 nM | 10.8 nM | 237 nM | 142 nM | > 10000 nM | 204 nM | 3.87 nM | 7.25 nM | > 1 nM | > 10000 nM | 1530 nM | 12600 nM | > 10000 nM | 333 nM | 64.5 nM | > 5000 nM | > 1000 nM | 378 nM | 199 nM | > 3000 nM | 7360 nM | 2530 nM | > 10000 nM | > 1000 nM | > 10000 nM | > 10000 nM | > 1000 nM | > 1000 nM | > 10000 nM | > 2000 nM | > 10000 nM |
| KURAMOCHI (Ovarian Carcinoma) | > 10000 nM | > 10000 nM | 52.8 nM | > 300 nM | > 10000 nM | 1670 nM | > 10000 nM | > 1000 nM | > 10000 nM | > 1000 nM | > 300 nM | 171 nM | > 1 nM | > 10000 nM | 6970 nM | > 20000 nM | > 10000 nM | > 1000 nM | 2440 nM | > 5000 nM | > 1000 nM | > 1000 nM | 4480 nM | > 3000 nM | > 10000 nM | > 10000 nM | > 10000 nM | > 1000 nM | > 10000 nM | > 10000 nM | > 1000 nM | 140 nM | > 10000 nM | 100 nM | > 10000 nM |
